Experimental data taken from ChEMBL document CHEMBL3593233, “Caryophyllene sesquiterpenes from the marine-derived fungus Ascotricha sp. ZJ-M-5 by the one strain-many compounds strategy” (2014).

Key:
K562 = test: Growth inhibition of human K562 cells after 72 hrs by trypan blue assay; format: functional; conditions: K562, 72 h
HL-60 = test: Growth inhibition of human HL60 cells after 72 hrs by trypan blue assay; format: functional; conditions: HL-60, 72 h

GI50 (K562)	GI50 (HL-60)	SMILES
10.1 µM	6.9 µM	CC(=O)O[C@H]1C/C(C)=C/[C@@H](O)[C@H](O)[C@H]2[C@H](O)O[C@]13[C@@H]2CC3(C)C
> 100 µM	> 100 µM	CC(=O)O[C@H]1C/C(C)=C/[C@@H](O)/C=C(/CO)[C@H]2CC(C)(C)[C@]12O
12.3 µM	8.5 µM	CO[C@@H]1[C@H]2[C@H](O)O[C@@]3([C@@H](OC(C)=O)C/C(C)=C/[C@H]1O)[C@@H]2CC3(C)C
